Calls of active or inactive are those of the source. No cut-off for these calls is given here.
What was measured:
Rattus norvegicus [1] = test: (§1) Antidiarrheal activity in Charles River rat assessed as inhibition of castor oil-induced diarrhea by measuring protected animals at 0.5 mg/kg, po administered for 2 days followed by 0.5 mg/kg, po on test day administered 1 hr prior to castor oil challenge measured after 1 hr relative to vehicle-treated control; type: functional
Rattus norvegicus [2] = test: Antihypertensive activity in spontaneously hypertensive rat model assessed as reduction in blood pressure at 0.3 mg/kg, po after 3 hrs; type: functional; design: scale not given: the % may be the effect or the level left
Rattus norvegicus [3] = test: Antidiarrheal activity in Charles River rat assessed as inhibition of castor oil-induced diarrhea by measuring protected animals at 0.2 mg/kg, po administered 1 hr prior to castor oil challenge measured after 1 hr relative to vehicle-treated control; type: functional
Rattus norvegicus [4] = test: as §1, with “5” for “2”; type: functional
Rattus norvegicus [5] = test: Antihypertensive activity in spontaneously hypertensive rat model assessed as reduction in blood pressure at 1 mg/kg, po after 24 hrs; type: functional; design: scale not given: the % may be the effect or the level left
Mus musculus [6] = test: Analgesic activity in po dosed mouse assessed as inhibition of acetic acid-induced writhing administered 30 mins prior to acetic acid challenge measured after 5 mins for 20 mins; type: functional
Rattus norvegicus [7] = test: Antidiarrheal activity in Charles River rat assessed as inhibition of castor oil-induced diarrhea by measuring protected animals at 0.05 mg/kg, po administered 1 hr prior to castor oil challenge measured after 1 hr relative to vehicle-treated control; type: functional
Rattus norvegicus [8] = test: as §1, with “by 1” for “by 0.5”; type: functional
Mus musculus [9] = test: Antianxiety activity in albino BALB/cJ mouse assessed as reduction in footshock-induced fighting behavior at 5 mg/kg, po after 30 to 90 mins; type: functional; design: scale not given: the % may be the effect or the level left
Rattus norvegicus [10] = test: Antidiarrheal activity in Charles River rat assessed as inhibition of castor oil-induced diarrhea by measuring protected animals at 0.1 mg/kg, po administered 1 hr prior to castor oil challenge measured after 1 hr relative to vehicle-treated control; type: functional
Rattus norvegicus [11] = test: Antisecretory activity in Sprague-Dawley rat assessed as decrease in volume at 50 mg/kg, po administered 30 mins prior to pylorus ligation measured after 4 hrs relative to control; type: functional; design: scale not given: the % may be the effect or the level left
Rattus norvegicus [12] = test: Antisecretory activity in Sprague-Dawley rat assessed as decrease in acid output at 50 mg/kg, po administered 30 mins prior to pylorus ligation measured after 4 hrs relative to control; type: functional; design: scale not given: the % may be the effect or the level left
Rattus norvegicus [13] = test: Antihypertensive activity in spontaneously hypertensive rat model assessed as reduction in blood pressure at 1 mg/kg, po after 3 hrs; type: functional; design: scale not given: the % may be the effect or the level left
Rattus norvegicus [14] = test: Antianxiety activity in Long-Evans rat assessed as reduction in motor activity at 5 mg/kg, po after 2 hrs relative to vehicle-treated control; type: functional; design: scale not given: the % may be the effect or the level left
Rattus norvegicus [15] = test: Antisecretory activity in Sprague-Dawley rat assessed as decrease in acidity at 50 mg/kg, po administered 30 mins prior to pylorus ligation measured after 4 hrs relative to control; type: functional; design: scale not given: the % may be the effect or the level left
Rattus norvegicus [16] = test: Antihypertensive activity in spontaneously hypertensive rat model assessed as reduction in blood pressure at 0.3 mg/kg, po after 24 hrs; type: functional; design: scale not given: the % may be the effect or the level left
Rattus norvegicus [17] = test: Antipsychotic activity in rat assessed as reduction of methamphetamine-induced hyperactivity at 5 mg/kg, po administered prior to methamphetamine challenge relative to vehicle-treated control; type: functional; design: scale not given: the % may be the effect or the level left
Canis familiaris = test: Antianxiety activity in po dosed dog assessed as ataxia administered as single dose measured up to 24 hrs; type: functional; settings: Canis lupus familiaris, read-out: MED
[18] = Acute toxicity in po dosed mouse; type: organism-based; settings: in vivo
Rattus norvegicus [19] = test: Antisecretory activity in Sprague-Dawley rat assessed as decrease in pepsin output at 50 mg/kg, po administered 30 mins prior to pylorus ligation measured after 4 hrs relative to control; type: functional; design: scale not given: the % may be the effect or the level left
Rattus norvegicus [20] = test: Antipsychotic activity in rat assessed as reduction of methamphetamine-induced hyperactivity at 2 mg/kg, po administered prior to methamphetamine challenge relative to vehicle-treated control; type: functional; design: scale not given: the % may be the effect or the level left
Rattus norvegicus [21] = test: Antipsychotic activity in rat assessed as reduction of methamphetamine-induced hyperactivity at 0.5 mg/kg, po administered prior to methamphetamine challenge relative to vehicle-treated control; type: functional; design: scale not given: the % may be the effect or the level left
Rattus norvegicus [22] = test: Antisecretory activity in Sprague-Dawley rat assessed as decrease in pepsin concentration at 50 mg/kg, po administered 30 mins prior to pylorus ligation measured after 4 hrs relative to control; type: functional; design: scale not given: the % may be the effect or the level left
Rattus norvegicus [23] = test: Antianxiety activity in Long-Evans rat assessed as reduction in motor activity at 1 mg/kg, po after 2 hrs relative to vehicle-treated control; type: functional; design: scale not given: the % may be the effect or the level left
Rattus norvegicus [24] = test: Antihypertensive activity in spontaneously hypertensive rat model assessed as reduction in blood pressure at 5 mg/kg, po after 3 hrs; type: functional; design: scale not given: the % may be the effect or the level left
Mus musculus [25] = test: Antianxiety activity in albino BALB/cJ mouse assessed as reduction in footshock-induced fighting behavior at 10 mg/kg, po after 30 to 90 mins; type: functional; design: scale not given: the % may be the effect or the level left
Felis catus [26] = test: Hypnotic activity in cat assessed as increase in non-REM sleep time at 0.5 mg/kg administered orally through diet measured for 12 hrs by EEG analysis; type: functional; settings: route oral
Rattus norvegicus [27] = test: Antianxiety activity in Long-Evans rat assessed as reduction in motor activity at 10 mg/kg, po after 2 hrs relative to vehicle-treated control; type: functional; design: scale not given: the % may be the effect or the level left
Rattus norvegicus [28] = test: Antipsychotic activity in rat assessed as reduction of methamphetamine-induced hyperactivity at 2.5 mg/kg, po administered prior to methamphetamine challenge relative to vehicle-treated control; type: functional; design: scale not given: the % may be the effect or the level left
Rattus norvegicus [29] = test: Antihypertensive activity in spontaneously hypertensive rat model assessed as reduction in blood pressure at 5 mg/kg, po after 24 hrs; type: functional; design: scale not given: the % may be the effect or the level left
Rattus norvegicus [30] = test: Analgesic activity in po dosed Sprague-Dawley rat after 15 to 90 mins by tail flick test; type: functional
Felis catus [31] = test: Hypnotic activity in cat assessed as increase in total sleep time at 0.5 mg/kg administered orally through diet measured for 12 hrs by EEG analysis; type: functional; settings: route oral
Rattus norvegicus [32] = test: Antidiarrheal activity in Charles River rat assessed as inhibition of castor oil-induced diarrhea by measuring protected animals at 0.8 mg/kg, po administered 1 hr prior to castor oil challenge measured after 1 hr relative to vehicle-treated control; type: functional
Rattus norvegicus [33] = test: Antidiarrheal activity in Charles River rat assessed as inhibition of castor oil-induced diarrhea by measuring protected animals at 0.4 mg/kg, po administered 1 hr prior to castor oil challenge measured after 1 hr relative to vehicle-treated control; type: functional
Rhesus monkey = test: Antianxiety activity in po dosed rhesus monkey assessed as antiagressive behavior measured every hour post dosing; type: functional; settings: Macaca mulatta, read-out: MED
Rattus norvegicus [34] = test: Increase in pepsin output in Sprague-Dawley rat at 50 mg/kg, po administered 30 mins prior to pylorus ligation measured after 4 hrs relative to control; type: functional
Mus musculus [35] = test: Anticonvulsant activity in po dosed mouse assessed as dose required to protect 80% of animal measured after 1 to 4 hrs by audiogenic seizure test; type: functional
Felis catus [36] = test: Hypnotic activity in cat assessed as increase in total sleep time at 1 mg/kg administered orally through diet measured for 12 hrs by EEG analysis; type: functional; settings: route oral
Rattus norvegicus [37] = test: Antihypertensive activity in spontaneously hypertensive rat model assessed as reduction in blood pressure at 25 mg/kg, po after 24 hrs; type: functional; design: scale not given: the % may be the effect or the level left
Rattus norvegicus [38] = test: Antipsychotic activity in rat assessed as reduction of methamphetamine-induced hyperactivity at 10 mg/kg, po administered prior to methamphetamine challenge relative to vehicle-treated control; type: functional; design: scale not given: the % may be the effect or the level left
Rattus norvegicus [39] = test: Increase in pepsin concentration in Sprague-Dawley rat at 50 mg/kg, po administered 30 mins prior to pylorus ligation measured after 4 hrs relative to control; type: functional
Felis catus [40] = test: Hypnotic activity in cat assessed as increase in total sleep time at 4 mg/kg administered orally through diet measured for 12 hrs by EEG analysis; type: functional; settings: route oral
Felis catus [41] = test: Hypnotic activity in cat assessed as increase in non-REM sleep time at 1 mg/kg administered orally through diet measured for 12 hrs by EEG analysis; type: functional; settings: route oral
Rattus norvegicus [42] = test: Antianxiety activity in Long-Evans rat assessed as reduction in motor activity at 20 mg/kg, po after 2 hrs relative to vehicle-treated control; type: functional; design: scale not given: the % may be the effect or the level left
Rattus norvegicus [43] = test: Antihypertensive activity in spontaneously hypertensive rat model assessed as reduction in blood pressure at 10 mg/kg, po after 24 hrs; type: functional; design: scale not given: the % may be the effect or the level left
Rattus norvegicus [44] = species: Rattus norvegicus; test: animal or person; type: functional; settings: Charles River, route oral
Description: Antidiarrheal activity in Charles River rat assessed as inhibition of castor oil-induced diarrhea by measuring protected animals at 0.5 mg/kg, po administered 1 hr prior to castor oil challenge measured after 1 hr relative to vehicle-treated control

Felis catus [45] = test: Hypnotic activity in cat assessed as decrease in non-REM sleep time at 4 mg/kg administered orally through diet measured for 12 hrs by EEG analysis; type: functional; settings: route oral
Rattus norvegicus [46] = test: Increase in volume in Sprague-Dawley rat at 50 mg/kg, po administered 30 mins prior to pylorus ligation measured after 4 hrs relative to control; type: functional
Mus musculus [47] = test: Antidepressant activity in mouse assessed as potentiation of DOPA-induced effect at 5 mg/kg, po administered 4 hrs prior to DOPA challenge; type: functional, organism-based; design: dose 5 mg/kg
Rattus norvegicus [48] = test: Antihypertensive activity in spontaneously hypertensive rat model assessed as reduction in blood pressure at 10 mg/kg, po after 3 hrs; type: functional; design: scale not given: the % may be the effect or the level left
Rattus norvegicus [49] = test: Antihypertensive activity in spontaneously hypertensive rat model assessed as reduction in blood pressure at 25 mg/kg, po after 3 hrs; type: functional; design: scale not given: the % may be the effect or the level left

CC1CCC2=C(C1)c1c(O)cc(C(C)C(C)CCc3ccc(F)cc3)cc1OC2(C)C (stereo unspecified)
inhibition in vivo at 0.5 mg/kg (Rattus norvegicus [1]): 0.5%
Activity (Rattus norvegicus [2]): 13%
inhibition in vivo at 0.2 mg/kg (Rattus norvegicus [3]): 90%
inhibition in vivo at 0.5 mg/kg (Rattus norvegicus [4]): 0%
Activity (Rattus norvegicus [5]): 12%
ED50 (Mus musculus [6]): 4.5 mg/kg
inhibition in vivo at 0.05 mg/kg (Rattus norvegicus [7]): 40%
inhibition (INH) (Rattus norvegicus [8]): 0%
Activity (Mus musculus [9]): 0%
inhibition in vivo at 0.1 mg/kg (Rattus norvegicus [10]): 60%
Activity (Rattus norvegicus [11]): 45.6%
Activity (Rattus norvegicus [12]): 53.1%
Activity (Rattus norvegicus [13]): 27%
Activity (Rattus norvegicus [14]): 66%
Activity (Rattus norvegicus [15]): 13.4%
Activity (Rattus norvegicus [16]): 10%
Activity (Rattus norvegicus [17]): 89%
minimal effective dose (Canis familiaris): 1 mg/kg
LD50 [18]: 750 mg/kg
Activity (Rattus norvegicus [19]): 56.4%
Activity (Rattus norvegicus [20]): 62%
Activity (Rattus norvegicus [21]): 58%
Activity (Rattus norvegicus [22]): 20.8%

CC1CCC2=C(C1)c1c(OC(=O)CCCN3CCCCC3)cc(C(C)CCCc3ccc(F)cc3)cc1OC2(C)C.Cl (stereo unspecified)
Activity (Rattus norvegicus [23]): 38%
Activity (Rattus norvegicus [24]): 25%
Activity (Mus musculus [25]): 73%
Time (Felis catus [26]): 73 min
ED50 (Mus musculus [6]): 1.76 mg/kg
Activity (Rattus norvegicus [27]): 95%
inhibition in vivo at 0.1 mg/kg (Rattus norvegicus [10]): 10%
Activity (Rattus norvegicus [28]): 50%
Activity (Rattus norvegicus [29]): 19%
ED50 (Rattus norvegicus [30]): 1.46 mg/kg
Activity (Rattus norvegicus [14]): 72%
Time (Felis catus [31]): 50 min
Activity (Rattus norvegicus [17]): 75%
minimal effective dose (Canis familiaris): 0.2 mg/kg
inhibition in vivo at 0.8 mg/kg (Rattus norvegicus [32]): 90%
inhibition in vivo at 0.4 mg/kg (Rattus norvegicus [33]): 70%
minimal effective dose (Rhesus monkey): 1 mg/kg
LD50 [18]: ≥ 1000 mg/kg

CCCCCc1cc(O)c2c(c1)OC(C)(C)[C@@H]1CCC(C)=C[C@@H]21 [DRONABINOL]
Activity (Rattus norvegicus [34]): 8.9%
Activity (Mus musculus [35]): 20 mg/kg
Activity (Mus musculus [25]): 68%
Time (Felis catus [36]): 29 min
ED50 (Mus musculus [6]): 43 mg/kg
Activity (Rattus norvegicus [37]): 21%
Activity (Rattus norvegicus [38]): 41%
Activity (Rattus norvegicus [39]): 8.2%
Time (Felis catus [40]): 17 min
Time (Felis catus [41]): 1 min
Activity (Rattus norvegicus [42]): 72%
Activity (Rattus norvegicus [12]): 7.3%
Activity (Rattus norvegicus [14]): 14%
Activity (Rattus norvegicus [43]): 8%
inhibition in vivo at 0.5 mg/kg (Rattus norvegicus [44]): 0%
Activity (Rattus norvegicus [15]): 7.5%
Time (Felis catus [45]): -3 min
Activity (Rattus norvegicus [17]): 15%
minimal effective dose (Canis familiaris): 0.5 mg/kg
Activity (Rattus norvegicus [46]): 0.7%
minimal effective dose (Rhesus monkey): 1 mg/kg
LD50 [18]: ≥ 1000 mg/kg
Activity (Mus musculus [47]): Active
Activity (Rattus norvegicus [48]): 6%
Activity (Rattus norvegicus [49]): 39%
